{"source": "patent US11147875B2", "about": "“Compositions, combinations and related methods for photoimmunotherapy” (priority 2015, dated 2021)", "key": {"[1]": {"details": "cited from earlier work"}, "[2]": {"tested_on": "BxPC3 pancreatic cancer cells", "assay": "In vitro PIT with panitumumab conjugates", "assay_type": "cell-based", "details": "10 μg/mL; for killing: 8 J/cm^2 at 690 nm", "protocol": "The two conjugates were tested for efficiency in killing cells in an in vitro PIT assay using the pancreatic cancer line BxPC3. BxPC3 were seeded into 96-well white-wall plates (4,000 cells/well) the day before the experiment. Antibody conjugates were added to cells at a concentration of 10 μg/mL and were incubated for 2 hours at 37° C. Light of 690 nm was applied by a diode at a constant power output of 50 mW/cm^2. The illumination time was modulated to achieve the fluences 4 J/cm^2, 8 J/cm^2 or 16 J/cm^2. As a control, a group of cells was not irradiated with light (0 J/cm^2). To monitor the progression of cell death after light treatment, the conjugate containing medium was replaced by fresh medium containing CellTox Green (Promega), a dye that reports cell death based on compromised cell membrane integrity. Time dependent increase in cell death was observed over 24 hours."}, "human iDCs": {"tested_on": "human iDCs", "assay": "DC activation after priming with PIT-killed FaDu cells and Poly I:C treatment", "assay_type": "cell-based", "details": "1 μg/mL overnight, DCs primed with FaDu cells PIT-killed with Cetuximab IRDye 700DX, vs no light controls", "protocol": "FaDu cells grown in complete EMEM media were plated in 100 μL total volume per well in a 96 well tissue culture plate for adherence overnight. […] PIT cell killing was induced by illumination with a 690 nm laser light at a fluence of 12 J/cm^2. The controls represented wells corresponding to the groups not treated with light.\nFor co-culture, human iDCs (Astarte Biologics) from a healthy donor were directly added into the wells with PIT killed tumor cells and into control wells (non-PIT treated tumor cells). The co-cultures were then incubated for 48 hours at 37° C. in the CO2 incubator. The harvested DCs were then subjected to poly I:C treatment (1 μg/mL) for overnight. The cells were then detached using a non-enzymatic detachment solution.\nThe harvested cells from various treatment conditions were incubated with live/dead discrimination dye Zombie Green (BioLegend, 1:500) for 20 min at room temperature followed by washing with stain buffer. Cells were resuspended in stain buffer and human Fc blocking reagent (BD) was then added and cells were incubated for 20 min at room temperature. […]\nAppropriate gating was performed while analyzing the data to exclude cell debris, and the data was analyzed with gating performed on live events. The results described below are based on median fluorescence intensity (MFI) data from each group which is plotted as fold increase over the no light controls."}, "A431 cells": {"tested_on": "A431 cells", "assay": "EGF-IRDye 700DX light-dependent killing", "assay_type": "cell-based", "details": "for light-dependent killing: 24 hours", "protocol": "Photo-activated EGF-IR700 cell killing was assessed in A431 cells. A431 cells were seeded at 5000 cells per well in 96 well white clear bottom dishes one day prior to the experiment. The following day, the A431 cells were washed three times with EMEM supplemented with 1% Penicillin/Streptomycin (serum free media). The A431 cells were then washed one time with serum free media, then incubated with serum free media containing 1 μg/mL of EGF-IRDye 700DX for one hour at 4° C. or serum free media only. […] The cells were then washed one time with serum free media.\nTo induce IR700-dependent killing, the cells were then illuminated with a 690 nm laser with 32 J/cm^2 of light or protected from light (“no light”). Cell death was evaluated as described in Example 6 using CellTox Green. The normalized percentage of dead cells was calculated by subtracting all wells by the percentage of dead cells from the no light serum free media only control, dividing by EGF-IRDye 700DX at 32 J/cm^2 minus the no light serum free media only control, and multiplied 100.\nThe effect of EGF-IRDye 700DX pre-exposure to white light versus green light on photo-activated cell killing was also evaluated in A431 cells. EGF-IRDye 700DX was pre-exposed to different types of light and the effect of light treatment on photo-activated killing activity was evaluated. Five microliters of EGF-IRDye 700DX conjugate (DAR 2) was added per clear HPLC vial at a EGF-IRDye 700DX concentration of 1.14 mg/mL. The following conditions were tested: (1) the antibody-IRDye 700DX conjugate stored at 4° C. protected from light (“4° C.”, used as the control); (2) antibody-IRDye 700DX conjugate placed in a clear glass HPLC tube under a Halogen lamp at 2500 lux for 24 hrs (“white light”); (3) antibody-IRDye 700DX conjugate placed in a clear glass HPLC tube wrapped in aluminum foil to protect from light exposure under Halogen lamp at 2500 lux for 24 hrs (“no light”), used as a control for thermal heating effects on the formation of aggregates); and (4) antibody-IRDye 700DX conjugate placed in a clear glass HPLC tube and exposed to green LED lamp at 2500 lux for 24 hrs (“green light”).\nTo assess cell killing activity, A431 cells were washed two times with serum free media, and incubated in serum free media alone for one hour at 4° C. The cells were then washed one time with serum free media and incubated with serum free media alone or serum free media containing 1 μg/mL of EGF-IRDye 700DX (“no light”), serum free media containing 1 μg/mL of EGF-IRDye 700DX pre-exposed to white light (“2500 Lux White light”), or serum free media containing 1 μg/mL EGF-IRDye 700DX pre-exposed to green light for one hour at 4° C. (“2500 Lux Green light”). The cells were then washed one time with serum free media.\nTo induce cell killing, the cells were either protected from light (light dose 0 J/cm^2) or were illuminated with a 690 nm laser with different light dosimetries (8 J/cm^2, 32 J/cm^2 or 64 J/cm^2)."}, "[3]": {"details": "in vivo, 400 mg/m2; cited from earlier work"}}, "note": "Read-outs that look alike come from different tables or passages of the source.", "data": [{"compound": "C=Cc1c(C)c2cc3nc(c(CC(=O)N[C@@H](CC(=O)[O-])C(=O)[O-])c4[nH]c(cc5nc(cc1[nH]2)C(C)=C5CC)c(C)c4C(=O)[O-])[C@@H](CCC(=O)[O-])[C@@H]3C.[Na+].[Na+].[Na+].[Na+]", "note": "[NPe6/Laserphyrin®, mono-L-aspartylchlorin e6]", "values": [{"measurement": "extinction coefficient", "setting": "[1]", "result": 40000, "unit": "M⁻¹ cm⁻¹"}]}, {"compound": "Pan-IRDye 700DX-Alexa-488: panitumunab conjugated both to IRDye 700DX and Alexa Fluor 488", "values": [{"measurement": "cell killing", "setting": "[2]; 4 J/cm^2 at 690 nm", "result": "only marginally effective"}, {"measurement": "killing", "setting": "[2]", "result": 73, "unit": "%"}, {"measurement": "cell killing", "setting": "[2]; 16 J/cm^2 at 690 nm", "result": "near complete cell killing"}]}, {"compound": "Photofrin®", "values": [{"measurement": "extinction coefficient", "setting": "[1]", "result": 1200, "unit": "M⁻¹ cm⁻¹"}]}, {"compound": "Poly I:C", "values": [{"measurement": "CD80 and CD86 expression levels", "setting": "human iDCs", "result": "increased CD80 and CD86 expression levels"}]}, {"compound": "Pan-IRDye 700DX: anti-human EGFR antibody drug panitumumab conjugated only with IRDye 700DX", "values": [{"measurement": "cell killing", "setting": "[2]; 4 J/cm^2 at 690 nm", "result": "only marginally effective"}, {"measurement": "killing", "setting": "[2]", "result": 74, "unit": "%"}, {"measurement": "cell killing", "setting": "[2]; 16 J/cm^2 at 690 nm", "result": "near complete cell killing"}]}, {"compound": "EGF-IRDye 700DX: human recombinant epidermal growth factor (EGF) conjugated to IRDye 700DX (NSDSECPLSHDGYCLHDGVCMYIEALDKYACNCVVGYIGERCQYRDLKWWELR; Epidermal growth factor IRDye 700DX dye; UniProt P01133 971-1023, looked up)", "values": [{"measurement": "cell killing", "setting": "A431 cells; 1 μg/mL, 32 J/cm^2 vs no light", "result": "light-dependent killing"}, {"measurement": "cell killing", "setting": "A431 cells; cells pre-exposed to 100 μg/mL unconjugated cetuximab", "result": "blocked light-dependent cell killing"}, {"measurement": "light-dependent killing", "setting": "A431 cells; conjugate pre-exposed to green light, 2500 lux", "result": "exhibited light-dependent killing activity comparable"}, {"measurement": "light-dependent killing", "setting": "A431 cells; conjugate pre-exposed to white light, 2500 lux", "result": "no longer exhibited light-dependent killing activity"}, {"measurement": "light-dependent killing", "setting": "A431 cells; conjugate protected from light under halogen lamp", "result": "exhibited light-dependent killing"}]}, {"compound": "Oc1cccc(-c2c3nc(c(-c4cccc(O)c4)c4ccc([nH]4)c(-c4cccc(O)c4)c4nc(c(-c5cccc(O)c5)c5ccc2[nH]5)CC4)C=C3)c1", "note": "[Foscan®, meta-tetrahydroxyphenylchlorin]", "values": [{"measurement": "extinction coefficient", "setting": "[1]; 652 nm", "result": 22000, "unit": "M⁻¹ cm⁻¹"}]}, {"compound": "cetuximab: anti-EGFR antibody cetuximab (Erbitux), not conjugated", "values": [{"measurement": "AUC0-∞", "setting": "[3]", "result": "24,740 μg/mL*h"}]}]}
